# Results from US20110251188A1, “ACENAPHTHO HETEROCYCLE COMPOUNDS, CYCLODEXTRIN INCLUSION COMPOUNDS AND COMPLEXES, AND USES IN THE MANUFACTURES OF BH3 PROTEIN ANALOGUE, BCL-2 FAMILY PROTEIN INHIBITORS THEREOF” (DALIAN UNIVERSITY OF TECHNOLOGY, priority 2008, published 2011).
# Assays:
# [1] = tested on: Bcl-2; test: Western blotting, compounds compared with cyclodextrin inclusion compounds and complexes, Example 24; assay type: cell-based; settings: Table 9; 10 μM or equivalent of inclusion compound, 24 hours
# Method: (§1) The cells were inoculated in a 6-well plate (2×10^5 cells/well). In the compound group, the compound 3-thiomorpholinyl-8-oxo-8H-acenaphtho[1,2-b]pyrrole-9-carbonitrile was dissolved into DMSO until the final concentration reached 10 μM. In the inclusion group, γ-cyclodextrin inclusion, which had been dissolved into water and was equivalent to 10 μM of the compound, was added thereinto. 24 hours later, the cells were washed with PBS for three times, then the cell sample was collected and cracked with 1×10^6/50 μl cell lysis solution (62.5 mM Tris-HCL pH 6.8; 2% SDS; 10% glycerol; 50 mM DTT; 0.01% bromphenol blue) at low temperature, then the solution was centrifuged and the protein supernatant was collected. The sample was boiled at 100° C. for 5 minutes and then was separated by electrophoresis on 12% SDS-PAGE and transferred. The interest protein was detected by the corresponding antibody. The expression of the interest protein in the cells was detected by horseradish peroxidase-labeled secondary antibodies in combination with ECL coloration method. […] The concentration of the protein bands in the Western figures were carried out semiquantitative analysis and normalization treatment with KODAK Gel Logic 1500 imaging system software.
# [2] = tested on: Mcl-1; test: as above; assay type: cell-based; settings: Table 8; 10 μM or equivalent of inclusion compound, 24 hours
# Method: as §1
# [3] = tested on: hepatoma carcinoma cells H22; test: in vivo tumor model, subcutaneous H22 tumor in Kunming mice; settings: experimental group 2: peritoneal injection of DMSO solution, 0.3 mg/kg BW every other day, 10 days; tumor volume on the fortieth day
# Method: The Kunming mice (in China) were randomly divided into groups, with 10 mice in each group. The cultivated hepatoma carcinoma cells H22 were inoculated subcutaneously in the oxter of the mice with 200 μL/mouse. After bearing the cancer cells for five days, the subcutaneous tumor was formed. Then the compound 3-thiomorpholinyl-8-oxo-8H-acenaphtho[1,2-b]pyrrole-9-carbonitrile and γ-cyclodextrin inclusion compound thereof were given by peritoneal injection, and the compound to be detected included by γ-cyclodextrin was given by oral administration. The detection conditions comprise:
# Blank control group: the mice were not treated in any manner after the bearing cancer;
# Control group (1): the mice were given a peritoneal injection of DMSO solution every other day after the bearing cancer, 10 days in total;
# Control group (2): the mice were given a peritoneal injection of cyclodextrin solution every other day after the bearing cancer, 10 days in total;
# Experimental group (1): the mice were given a peritoneal injection of DMSO solution equivalent to 0.03 mg/kg BW compound every other day after the bearing cancer, 10 days in total;
# Experimental group (2): the mice were given a peritoneal injection of DMSO solution equivalent to 0.3 mg/kg BW compound every other day after the bearing cancer, 10 days in total;
# Experimental group (3): the mice were given a peritoneal injection of inclusion compound water solution equivalent to 0.3 mg/kg BW compound every other day after the bearing cancer, 10 days in total;
# Experimental group (4): the mice were given an intragastric administration of inclusion compounds water solution equivalent to 0.3 mg/kg BW compound every other day after the bearing cancer, 10 days in total;
# During the experimental period, the length-diameter (a) and short diameter (b), which was perpendicular to the length-diameter, of the tumor were detected twice every week. The gross tumor volume was determined according to the formula: ½ab^2. The survival time of the animal was observed. The tumor inhibition rate was calculated by the tumor volume on the fortieth day.
Structure (SMILES),"downregulation of Bcl-2 protein, semiquantitative analysis (band concentration, control = 1) [1]","downregulation of Mcl-1 protein, semiquantitative analysis (band concentration, control = 1) [2]",tumor inhibition rate [3]
"N#CC1=C2C(=NC1=O)c1c(Sc3ccc(Br)cc3)ccc3c(Sc4ccc(Br)cc4)ccc2c13 [3,6-di(4-bromophenylthio)-8-oxo-8H-acenaphtho[1,2-b]pyrrole-9-carbonitrile]",0.69,0.69,about 78%
"N#CC1=C2C(=NC1=O)c1cccc3cccc2c13 [8-oxo-8H-acenaphtho[1,2-b]pyrrole-9-carbonitrile]",0.69,0.77,about 60%
"N#CC1=C2C(=NC1=O)c1c(Sc3ccc(N)cc3)ccc3c(Sc4ccc(N)cc4)ccc2c13 [3,6-di(4-aminophenylthio)-8-oxo-8 H-acenaphtho[1,2-b]pyrrole-9-carbonitrile]",0.75,0.75,about 50%
"N#CC1=C2C(=NC1=O)c1cccc3c(Sc4ccc(Br)cc4)ccc2c13 [3-(4-bromophenylthio)-8-oxo-8H-acenaphtho[1,2-b]pyrrole-9-carbonitrile]",0.67,0.69,about 40%
"N#CC1=C2C(=NC1=O)c1c(Sc3ccc(N)cc3)ccc3cccc2c13 [6-(4-aminophenylthio)-8-oxo-8H-acenaphtho[1,2-b]pyrrole-9-carbonitrile]",0.74,0.70,about 30%
